Results: ChEMBL document CHEMBL1201862, “PubChem BioAssay data set” (2004)
Calls of active or inactive are those of the source.

Legend:
Genome polyprotein = Genome polyprotein (dengue virus type 2, UniProt P29990); assay: Dengue-2 NS5 methyltransferase inhibitors, primary screen, biochemical, confirmation dose response (AID 588689); type: functional
Caspase-3 = target: T1, Caspase-3 (Homo sapiens, UniProt P42574); type: functional;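 also: Dose-response selectivity test against caspase-3 for candidate inhibitors of sentrin-specific proteases (SENPs)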
T1 sequence (P42574 whole entry): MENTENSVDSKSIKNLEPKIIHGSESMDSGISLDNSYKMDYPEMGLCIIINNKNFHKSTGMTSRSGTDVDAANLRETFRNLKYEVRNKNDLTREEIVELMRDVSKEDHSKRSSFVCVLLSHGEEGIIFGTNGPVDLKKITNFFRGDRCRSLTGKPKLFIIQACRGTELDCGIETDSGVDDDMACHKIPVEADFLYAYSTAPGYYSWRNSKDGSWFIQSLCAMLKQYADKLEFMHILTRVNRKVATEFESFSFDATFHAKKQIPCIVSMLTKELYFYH

[1] = target: T2, Sentrin-specific protease 7 (Homo sapiens, UniProt Q9BQF6); type: functional;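 also: Luminescence-based dose-response confirmation of ultra-high-throughput screening hits, measuring inhibition of SENP7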
T2 sequence (Q9BQF6 whole entry): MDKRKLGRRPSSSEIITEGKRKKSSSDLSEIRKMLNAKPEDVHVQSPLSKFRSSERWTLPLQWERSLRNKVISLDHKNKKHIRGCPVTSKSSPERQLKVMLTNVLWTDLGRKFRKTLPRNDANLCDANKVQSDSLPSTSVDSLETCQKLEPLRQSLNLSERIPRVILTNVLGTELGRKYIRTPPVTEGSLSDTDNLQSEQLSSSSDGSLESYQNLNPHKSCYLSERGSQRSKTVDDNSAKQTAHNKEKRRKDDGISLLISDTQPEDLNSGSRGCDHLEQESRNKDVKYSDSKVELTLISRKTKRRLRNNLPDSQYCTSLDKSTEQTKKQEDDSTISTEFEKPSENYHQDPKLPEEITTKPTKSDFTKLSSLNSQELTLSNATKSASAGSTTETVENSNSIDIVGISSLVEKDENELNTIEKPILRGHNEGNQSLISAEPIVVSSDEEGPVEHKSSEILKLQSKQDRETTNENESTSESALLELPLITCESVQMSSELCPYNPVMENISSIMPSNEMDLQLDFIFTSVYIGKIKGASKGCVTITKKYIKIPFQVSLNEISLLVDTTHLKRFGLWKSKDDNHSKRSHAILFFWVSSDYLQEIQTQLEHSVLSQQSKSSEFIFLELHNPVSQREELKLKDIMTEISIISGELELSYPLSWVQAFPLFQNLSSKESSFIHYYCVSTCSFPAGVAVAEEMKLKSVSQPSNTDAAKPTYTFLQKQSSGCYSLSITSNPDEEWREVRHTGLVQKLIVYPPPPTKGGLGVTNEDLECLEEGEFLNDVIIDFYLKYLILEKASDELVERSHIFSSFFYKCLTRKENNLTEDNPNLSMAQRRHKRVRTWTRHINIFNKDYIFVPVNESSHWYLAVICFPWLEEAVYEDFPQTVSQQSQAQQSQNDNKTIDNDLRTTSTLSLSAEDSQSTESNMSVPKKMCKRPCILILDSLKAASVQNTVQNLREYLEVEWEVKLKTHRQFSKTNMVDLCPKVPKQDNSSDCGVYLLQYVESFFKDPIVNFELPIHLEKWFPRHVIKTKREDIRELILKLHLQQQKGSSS

[2] = target: T3, Sentrin-specific protease 6 (Homo sapiens, UniProt Q9GZR1); type: functional;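 also: Luminescence-based dose-response confirmatory assay of SENP6 inhibition, following up an ultra-high-throughput screen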
T3 sequence (Q9GZR1 whole entry): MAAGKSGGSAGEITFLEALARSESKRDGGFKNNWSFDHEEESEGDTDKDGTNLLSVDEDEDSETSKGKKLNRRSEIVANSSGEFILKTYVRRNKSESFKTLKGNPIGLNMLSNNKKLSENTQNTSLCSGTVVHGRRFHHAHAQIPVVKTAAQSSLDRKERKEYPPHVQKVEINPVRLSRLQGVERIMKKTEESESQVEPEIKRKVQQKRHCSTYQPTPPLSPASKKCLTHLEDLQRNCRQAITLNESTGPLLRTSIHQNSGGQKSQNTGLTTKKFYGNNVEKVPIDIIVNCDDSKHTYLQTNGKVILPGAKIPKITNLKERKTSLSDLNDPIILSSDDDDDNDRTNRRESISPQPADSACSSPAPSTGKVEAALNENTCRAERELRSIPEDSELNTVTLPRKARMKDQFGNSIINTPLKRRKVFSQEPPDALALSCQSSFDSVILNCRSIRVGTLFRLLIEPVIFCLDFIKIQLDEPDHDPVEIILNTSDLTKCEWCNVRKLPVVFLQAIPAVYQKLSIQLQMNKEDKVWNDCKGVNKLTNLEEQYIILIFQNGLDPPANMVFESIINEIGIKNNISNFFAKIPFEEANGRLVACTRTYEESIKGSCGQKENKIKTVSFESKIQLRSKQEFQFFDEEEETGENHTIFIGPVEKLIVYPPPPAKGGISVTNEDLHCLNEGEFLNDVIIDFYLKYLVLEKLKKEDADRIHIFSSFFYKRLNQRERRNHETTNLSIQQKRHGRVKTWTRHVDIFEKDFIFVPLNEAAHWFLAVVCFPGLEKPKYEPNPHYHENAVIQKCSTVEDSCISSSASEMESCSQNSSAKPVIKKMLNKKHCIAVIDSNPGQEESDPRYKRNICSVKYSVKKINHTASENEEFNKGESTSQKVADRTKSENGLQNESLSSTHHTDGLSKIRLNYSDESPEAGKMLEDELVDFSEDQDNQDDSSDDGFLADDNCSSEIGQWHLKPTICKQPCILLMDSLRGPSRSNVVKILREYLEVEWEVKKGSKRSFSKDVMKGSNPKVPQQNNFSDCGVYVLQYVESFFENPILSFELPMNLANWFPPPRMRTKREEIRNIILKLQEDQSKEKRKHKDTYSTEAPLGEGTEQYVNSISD

[3] = target: T4, Sentrin-specific protease 8 (Homo sapiens, UniProt Q96LD8); type: functional;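 also: luminescence read-out of SENP8 inhibition, dose-response confirmation following an ultra-high-throughput screen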
T4 sequence (Q96LD8 whole entry): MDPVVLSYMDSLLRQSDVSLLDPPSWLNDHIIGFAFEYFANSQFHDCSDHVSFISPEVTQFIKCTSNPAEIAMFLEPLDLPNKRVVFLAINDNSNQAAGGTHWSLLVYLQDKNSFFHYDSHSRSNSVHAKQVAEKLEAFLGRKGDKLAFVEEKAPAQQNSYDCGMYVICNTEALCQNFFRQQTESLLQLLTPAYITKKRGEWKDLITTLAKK

INS1 = assay: beta cell apoptosis inhibitors, cytokine rescue, dose response, luminescence, retest (AID 449756); type: functional, cell-based; conditions: Rattus norvegicus;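 also: cell death triggered by IL-1 beta plus TNF-alpha plus IFN-gamma mixture; protective hits raise ATP signal compared with cytokine alone wells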
[4] = THP-1 cell cytotoxicity, dose response, cytotoxicity control for Vif-APOBEC3G degradation inhibitor project, THP-1 cells (AID 1117359); type: functional; conditions: Human immunodeficiency virus 1, THP-1
[5] = inhibitors of intracellular T. cruzi replication, confirmation, NIH3T3 host cells, beta-gal luminescence (AID 2044); type: functional, cell-based;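 also: intracellular parasites grown in NIH/3T3 mouse fibroblasts as host cells; luminescent beta-galactosidase reporter signal from transgenic T. cruzi replicating inside host cells; inhibitors lower the luminescence signal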
[6] = cytotoxicity toward NIH3T3 fibroblasts, dose response, counter-screen, cell-based, ATP luminescence, mouse fibroblasts (AID 2010); type: functional;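 also: cells exposed to compound for about 90 hours before reading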

Genome polyprotein, sequence (P29990 2492-3391 limits assumed): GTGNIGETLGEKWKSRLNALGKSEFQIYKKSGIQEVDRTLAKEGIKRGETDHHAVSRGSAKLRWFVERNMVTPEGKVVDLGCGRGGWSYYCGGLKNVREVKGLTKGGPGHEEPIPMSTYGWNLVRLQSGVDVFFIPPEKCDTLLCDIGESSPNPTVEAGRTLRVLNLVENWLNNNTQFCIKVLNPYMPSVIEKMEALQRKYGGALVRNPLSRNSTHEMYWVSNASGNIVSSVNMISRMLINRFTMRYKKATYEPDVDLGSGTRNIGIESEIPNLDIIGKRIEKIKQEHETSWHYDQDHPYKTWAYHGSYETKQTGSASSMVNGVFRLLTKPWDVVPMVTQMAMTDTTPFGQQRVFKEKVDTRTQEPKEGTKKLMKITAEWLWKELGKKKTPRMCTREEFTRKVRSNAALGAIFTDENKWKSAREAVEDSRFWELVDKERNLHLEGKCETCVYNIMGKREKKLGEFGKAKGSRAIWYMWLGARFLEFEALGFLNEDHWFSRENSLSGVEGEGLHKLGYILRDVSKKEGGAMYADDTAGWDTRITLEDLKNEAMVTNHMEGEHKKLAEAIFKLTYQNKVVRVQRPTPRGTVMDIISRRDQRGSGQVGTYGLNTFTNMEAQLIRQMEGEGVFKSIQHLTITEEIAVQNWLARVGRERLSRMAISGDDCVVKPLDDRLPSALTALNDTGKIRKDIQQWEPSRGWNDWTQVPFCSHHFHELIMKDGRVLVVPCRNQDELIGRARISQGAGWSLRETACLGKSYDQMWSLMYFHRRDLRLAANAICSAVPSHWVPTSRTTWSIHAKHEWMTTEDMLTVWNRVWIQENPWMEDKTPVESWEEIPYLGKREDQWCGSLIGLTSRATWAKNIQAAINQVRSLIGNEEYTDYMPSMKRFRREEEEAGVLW

CCc1nnc(NS(=O)(=O)c2ccc(NC(=S)NC(=O)/C=C/c3ccc(C(C)C)cc3)cc2)s1
active: IC50 (Genome polyprotein) 50 µM

O=C(/C=C/c1ccco1)Nc1ccc(Oc2ccccc2)cc1
active: IC50 (Caspase-3) 20.5 µM | IC50 [1] 3.82 µM | IC50 [2] 5.23 µM | IC50 [3] 17.4 µM

COc1ccc(S(=O)(=O)Nc2cc(SCC(=O)O)c(O)c3ccccc23)cc1
active: IC50 (Caspase-3) 11.2 µM | IC50 [1] 19.9 µM | IC50 [2] 3.81 µM | IC50 [3] 9.39 µM | AC50 (INS1) 4.09 µM | IC50 (Genome polyprotein) 7.22 µM | CC50 [4] 5.84 µM

O=C1C(Nc2ccc(O)cc2)=C/C(=N/S(=O)(=O)c2cccs2)c2ccccc21
active: EC50 [5] 0.55 µM | EC50 [6] 0.486 µM

CC1CC(=O)c2c(cc3c(-c4c(O)cc(O)c5c(O)c6c(cc45)OC(C)CC6=O)c(O)cc(O)c3c2O)O1 (stereo not drawn) [CEPHALOCHROMIN]
active: EC50 [5] 0.373 µM | EC50 [6] 8.42 µM | AC50 (INS1) 3.39 µM | CC50 [4] 3.08 µM
